Results taken from ChEMBL document CHEMBL5604063, “ASAP - DENV-2 NS2B-NS3 protease fluorescence dose response” (2024).
“And” between values parts separate entries of the source, which are not always exact repeats. Equal values may be shown once.

Assays:
Genome polyprotein [1] = molecular target: T1, Genome polyprotein (dengue virus type 2, UniProt P29990); format: functional, Thailand/16681/1984
Genome polyprotein [2] = molecular target: T1, Genome polyprotein; format: functional, Thailand/16681/1984; remark: listed apart in the source

T1 sequence (P29990 1346-1475 limits assumed): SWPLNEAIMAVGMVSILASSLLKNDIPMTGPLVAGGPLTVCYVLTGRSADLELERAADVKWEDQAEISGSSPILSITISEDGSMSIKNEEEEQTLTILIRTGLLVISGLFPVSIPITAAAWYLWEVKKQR
T1 sequence (P29990 1476-2093 limits assumed): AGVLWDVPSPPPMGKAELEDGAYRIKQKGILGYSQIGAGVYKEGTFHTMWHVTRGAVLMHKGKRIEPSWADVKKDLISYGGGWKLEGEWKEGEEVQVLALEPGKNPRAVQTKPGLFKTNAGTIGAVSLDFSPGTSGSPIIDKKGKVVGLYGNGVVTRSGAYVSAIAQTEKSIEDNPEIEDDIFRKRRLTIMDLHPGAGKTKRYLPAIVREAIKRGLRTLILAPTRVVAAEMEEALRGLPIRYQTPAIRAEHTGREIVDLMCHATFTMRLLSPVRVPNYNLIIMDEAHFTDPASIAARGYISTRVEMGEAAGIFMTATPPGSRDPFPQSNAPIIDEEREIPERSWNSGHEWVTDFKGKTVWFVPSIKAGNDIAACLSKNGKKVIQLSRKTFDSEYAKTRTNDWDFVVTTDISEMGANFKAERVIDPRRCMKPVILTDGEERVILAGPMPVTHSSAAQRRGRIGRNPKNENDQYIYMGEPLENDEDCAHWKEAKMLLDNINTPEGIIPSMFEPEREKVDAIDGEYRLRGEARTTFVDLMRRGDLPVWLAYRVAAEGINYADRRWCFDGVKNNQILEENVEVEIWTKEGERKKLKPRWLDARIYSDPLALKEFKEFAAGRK

Structure (SMILES) | IC50 (Genome polyprotein [1]) [µM] | IC50 (Genome polyprotein [2])
NCc1cccc(NC(=O)[C@H](NC(=O)OCc2ccccc2)c2cccc(-c3ccc4c(c3)CC(=O)N4)c2)c1 | > 100 | 16.2 µM and 7.19 µM
NCc1ccc(NS(=O)(=O)c2ccc(Oc3ccccc3Cl)cc2)cc1Cl | > 100 | > 99.5 µM
Cn1cc(-c2cccc([C@@H](NC(=O)OCc3ccccc3)C(=O)Nc3cccc(CN)c3)c2)ccc1=O | > 100 | > 99.5 µM
CC(F)(F)c1cccc(NC(=O)c2cc(Cl)cc(NC(=O)OCc3ccccc3)c2)c1 | > 100 | > 99.5 µM
CN(C)[C@@H]1CCC[C@H](C(=O)Nc2cccc(CN)c2)C1 | > 100 | > 99.5 µM
N[C@H](CO)c1cccc(NC(=O)c2cc(Cl)cc(NC(=O)OCc3ccccc3)c2)c1 | > 100 | > 99.5 µM
NC1CN(c2ncccc2NS(=O)(=O)c2ccc(Oc3ccccc3Cl)cc2)C1 | > 100 | > 99.5 µM
NC1(c2cccc(NC(=O)c3cc(Cl)cc(NC(=O)OCc4ccccc4)c3)c2)CC1 | > 100 | > 99.5 µM
NCc1cccc(Oc2ccc(S(=O)(=O)Nc3ccc(Cl)cc3C(=O)NCC(F)(F)F)cc2)c1 | > 100 | > 99.5 µM
NC(=O)c1cccc(NC(=O)c2cc(Cl)cc(NC(=O)OCc3ccccc3)c2)c1 | > 100 | > 99.5 µM
NCc1cccc(NC(=O)c2cc(Cl)cc3[nH]ncc23)c1 | > 100 | > 99.5 µM
CC(=O)NCc1cccc(NC(=O)c2cc(Cl)cc(NC(=O)OCc3ccccc3)c2)c1 | > 100 | > 99.5 µM
C=C(C)c1cc(NC(=O)OCc2ccccc2)cc(C(=O)Nc2cccc(CN)c2)c1 | > 100 | 50.4 µM
O=C(Cn1ccnc(N2CC[C@H](CO)C2)c1=O)N1CCOCC1 | > 100 | > 99.5 µM
C=C(C)c1cccc([C@@H](NC(=O)OCc2ccccc2)C(=O)Nc2cccc(CN)c2)c1 | > 100 | 30.1 µM
CNCc1cc(Cl)cc(C(=O)Nc2cccc(CN)c2)c1 | > 100 | > 99.5 µM
NCc1cccc(NC(=O)[C@@H](NC(=O)OCc2ccccc2)c2cccc(-c3ccc(N)nc3)c2)c1 | > 100 | > 99.5 µM
NC1(c2cc(C(F)(F)F)ccc2NS(=O)(=O)c2ccc(Oc3ccccc3Cl)cc2)CC1 | > 100 | > 99.5 µM
NCc1cccc(NC(=O)[C@H](NC(=O)OCc2ccccc2)c2ccc(OCc3ccccc3)c(Br)c2)c1 | > 100 | 30.4 µM
NCCc1cccc(NC(=O)[C@H]2[C@H]3CCCCC[C@H]3[C@H]2NC(=O)OCc2ccccc2)c1 | 12.1 | 8.41 µM and 7.22 µM

Structure (SMILES) | IC50 (Genome polyprotein [1]) [µM] | IC50 (Genome polyprotein [2])
NCc1cccc(CCc2cc(Cl)cc(NC(=O)OCc3ccccc3)c2)c1 | > 100 | 34.8 µM
NCCOc1ccnc(NS(=O)(=O)c2ccc(Oc3ccccc3Cl)cc2)c1 | > 100 | > 99.5 µM
C[C@@H](NCc1c[nH]c2ccccc12)c1cscn1 | > 100 | > 99.5 µM
NCc1cccc(NC(=O)C[C@H](CC(N)=O)c2ccc(F)cc2)c1 | > 100 | > 99.5 µM
N[C@H]1CCc2ccc(NC(=O)c3cc(Cl)cc(NC(=O)OCc4ccccc4)c3)cc21 | > 100 | 91.2 µM
CS(=O)(=O)Nc1c(Cl)cc(Cl)cc1C(=O)Nc1cccc(CN)c1 | > 100 | > 99.5 µM
NCc1cccc(NC(=O)c2cc(Br)cnc2OCC2CC2)c1 | > 100 | > 99.5 µM
NCc1cc(NS(=O)(=O)c2ccc(Oc3ccccc3Cl)cc2)ccc1Cl | > 100 | > 99.5 µM
COc1ccc(COc2ccc([C@H](NC(=O)OCc3ccccc3)C(=O)Nc3cccc(CN)c3)cc2)cn1 | > 100 | > 99.5 µM
NC1(c2ccccc2NS(=O)(=O)c2ccc(Oc3ccccc3Cl)cc2)CC1 | > 100 | > 99.5 µM
CN1CC=C(c2cccc([C@@H](NC(=O)OCc3ccccc3)C(=O)Nc3cccc(CN)c3)c2)CC1 | > 100 | > 99.5 µM
NCc1cccc(NC(=O)c2cc(Cl)cc(CN3CCOCC3)c2)c1 | > 100 | > 99.5 µM
NCc1cccc(NC(=O)[C@H](NC(=O)OCc2ccccc2)c2ccc(OCC3CCC3)cc2)c1 | > 100 | 48.8 µM
OC[C@H](Cc1cccnc1)NCc1c[nH]c2ccccc12 | > 100 | > 99.5 µM
CC(C)c1nc2c(C(=O)Nc3cccc(CN)c3)cccc2[nH]1 | > 100 | > 99.5 µM
COc1cc(C(=O)Nc2cccc(CN)c2)cc(NC(=O)OCc2ccccc2)c1Cl | > 100 | > 99.5 µM
NC1(c2cccc(NS(=O)(=O)c3ccc(Oc4ccccc4Cl)cc3)c2)CCC1 | > 100 | > 99.5 µM
NCc1cccnc1NS(=O)(=O)c1ccc(Oc2ccccc2Cl)cc1 | > 100 | > 99.5 µM
N[C@H]1CCOc2ccc(NC(=O)c3cc(Cl)cc(NC(=O)OCc4ccccc4)c3)cc21 | > 100 | > 99.5 µM
O=C(O)C[C@H](NC(=O)OCc1ccccc1)c1ccc(OCc2ccccc2)c(Br)c1 | 45.6 | 59.8 µM
